Reference: patent publication EP0428132A1, “Pradimicin derivatives” (Bristol-Myers Squibb Company, priority 1989, dated 1991)
In brackets after ≈: the same amount, converted by molar mass.

Columns and labels:
FA21436 = experiment: In vitro antifungal activity, serial agar dilution method (Table 1); assay type: cell-based, Asoergukkys flavus; conditions: for MIC: 40 h, pH 7, read-out: MIC, Asoergukkys flavus FA21436
Experimental: (§1) The inoculum size was adjusted to 10⁶ cells/ml, and a volume of approximately 0.003 ml of fungal suspension was applied to the surface of the antibiotic containing agar plates with a multiinoculator. After incubation, the lowest concentration of antibiotic causing virtually complete inhibition of fungal growth was determined as the minimum inhibitory concentration (MIC). Table 1. [table]

[1] = system: Aspergillus fumigatus IAM2034; experiment: as above; assay type: cell-based; conditions: Sabouraud dextrose agar (pH 7.0), 28°C for 40 hours; for MIC: Aspergillus fumigatus, IAM2034
Experimental: as §1

[2] = system: Aspergillus fumigatus IAM2530; experiment: as above; assay type: cell-based; conditions: Sabouraud dextrose agar (pH 7.0), 28°C for 40 hours; for MIC: Aspergillus fumigatus, IAM2530
Experimental: as §1

[3] = system: Blastomyces dermatidis D40; experiment: as above; assay type: cell-based; conditions: for MIC: Blastomyces, D40, 40 h, pH 7, read-out: MIC, Blastomyces dermatidis D40
Experimental: as §1

Candida albicans A9540 [4] = experiment: as above; assay type: cell-based; conditions: Sabouraud dextrose agar (pH 7.0), 28°C for 40 hours; for MIC: Candida albicans, A9540
Experimental: as §1

Candida albicans IAM4888 = experiment: as above; assay type: cell-based; conditions: Sabouraud dextrose agar (pH 7.0), 28°C for 40 hours; for MIC: Candida albicans, IAM4888
Experimental: as §1

[5] = system: Cryptococcus neoformans D49; experiment: as above; assay type: cell-based; conditions: for MIC: Cryptococcus neoformans, D49, 40 h, pH 7, read-out: MIC, Cryptococcus neoformans D49
Experimental: as §1

[6] = system: Cryptococcus neoformans IAM4514; experiment: as above; assay type: cell-based; conditions: Sabouraud dextrose agar (pH 7.0), 28°C for 40 hours; for MIC: Cryptococcus neoformans, IAM4514
Experimental: as §1

[7] = system: Fusarium moniliforme A2284; experiment: as above; assay type: cell-based; conditions: Sabouraud dextrose agar (pH 7.0), 28°C for 40 hours; for MIC: Fusarium verticillioides, A2284
Experimental: as §1

Mucor spinosus IFO5317 = experiment: as above; assay type: cell-based; conditions: Sabouraud dextrose agar (pH 7.0), 28°C for 40 hours; for MIC: Mucor spinosus, IFO5317
Experimental: as §1

[8] = system: Petriellidium boydii IFO8078; experiment: as above; assay type: cell-based; conditions: Sabouraud dextrose agar (pH 7.0), 28°C for 40 hours; for MIC: Scedosporium boydii, IFO8078
Experimental: as §1

[9] = system: Sprotricosis schenckii IFO8158; experiment: as above; assay type: cell-based; conditions: for MIC: 40 h, pH 7, read-out: MIC, Sprotricosis schenckii IFO8158
Experimental: as §1

[10] = system: Trichophyton mentagrophytes #4329; experiment: as above; assay type: cell-based; conditions: Sabouraud dextrose agar (pH 7.0), 28°C for 40 hours; for MIC: Trichophyton mentagrophytes
Experimental: as §1

[11] = system: Trichophyton mentagrophytes D155; experiment: as above; assay type: cell-based; conditions: Sabouraud dextrose agar (pH 7.0), 28°C for 40 hours; for MIC: Trichophyton mentagrophytes, D155
Experimental: as §1

Candida albicans A25578 = experiment: In vitro antifungal activity, serial agar dilution method (Table 1a); assay type: cell-based; conditions: A25578, YM agar (pH 7.0, Difco), 30°C for 2 days (yeast) or 4 days (filamentous fungi), read-out: MICs, Candida albicans A25578
Experimental: as §1, with “(MIC).” for “(MIC). Table 1. [table]”

Candida albicans A9540 [12] = experiment: as above; assay type: cell-based; conditions: A9540, YM agar (pH 7.0, Difco), 30°C for 2 days (yeast) or 4 days (filamentous fungi), read-out: MICs, Candida albicans A9540
Experimental: as §1, with “(MIC).” for “(MIC). Table 1. [table]”

[13] = system: Candida paratropicalis A25825; experiment: as above; assay type: cell-based; conditions: YM agar (pH 7.0, Difco); 30°C for 2 days (yeast) or 4 days (filamentous fungi); read-out: MICs, Candida paratropicalis A25825
Experimental: as §1, with “(MIC).” for “(MIC). Table 1. [table]”

[14] = system: Candida pseudotropicalis A25802; experiment: as above; assay type: cell-based; conditions: Kluyveromyces marxianus, YM agar (pH 7.0, Difco), 30°C for 2 days (yeast) or 4 days (filamentous fungi), read-out: MICs, Candida pseudotropicalis A25802
Experimental: as §1, with “(MIC).” for “(MIC). Table 1. [table]”

[15] = system: Candida tropicalis A25809; experiment: as above; assay type: cell-based; conditions: YM agar (pH 7.0, Difco), 30°C for 2 days (yeast) or 4 days (filamentous fungi), read-out: MICs, Candida tropicalis A25809
Experimental: as §1, with “(MIC).” for “(MIC). Table 1. [table]”

[16] = system: Candida tropicalis A25812; experiment: as above; assay type: cell-based; conditions: A25812, YM agar (pH 7.0, Difco), 30°C for 2 days (yeast) or 4 days (filamentous fungi), read-out: MICs, Candida tropicalis A25812
Experimental: as §1, with “(MIC).” for “(MIC). Table 1. [table]”

[17] = system: Cryptococcus neoformans A15053; experiment: as above; assay type: cell-based; conditions: A15053, YM agar (pH 7.0, Difco), 30°C for 2 days (yeast) or 4 days (filamentous fungi), read-out: MICs, Cryptococcus neoformans A15053
Experimental: as §1, with “(MIC).” for “(MIC). Table 1. [table]”

[18] = system: Microsporum canis WW10218; experiment: as above; assay type: cell-based; conditions: WW10218, pH 7, read-out: MICs, Microsporum canis WW10218
Experimental: as §1, with “(MIC).” for “(MIC). Table 1. [table]”

[19] = system: Microsporum gypseum WW1107; experiment: as above; assay type: cell-based; conditions: Nannizzia gypsea, YM agar (pH 7.0, Difco), 30°C for 2 days (yeast) or 4 days (filamentous fungi), read-out: MICs, Microsporum gypseum WW1107
Experimental: as §1, with “(MIC).” for “(MIC). Table 1. [table]”

[20] = system: Saccharomyces cerevisiae A25803; experiment: as above; assay type: cell-based; conditions: YM agar (pH 7.0, Difco), 30°C for 2 days (yeast) or 4 days (filamentous fungi), read-out: MICs, Saccharomyces cerevisiae A25803
Experimental: as §1, with “(MIC).” for “(MIC). Table 1. [table]”

[21] = system: Trichophyton mentagrophytes A26771; experiment: as above; assay type: cell-based; conditions: A26771, YM agar (pH 7.0, Difco), 30°C for 2 days (yeast) or 4 days (filamentous fungi), read-out: MICs, Trichophyton mentagrophytes A26771
Experimental: as §1, with “(MIC).” for “(MIC). Table 1. [table]”

[22] = system: Trichophyton rubrum A26761; experiment: as above; assay type: cell-based; conditions: A26761, pH 7, read-out: MICs, Trichophyton rubrum A26761
Experimental: as §1, with “(MIC).” for “(MIC). Table 1. [table]”

[23] = Water solubility, protocol I (PBS, HPLC); assay type: physicochemical; conditions: Method I: PBS without CaCl₂ and MgCl₂.6H₂O
Experimental: The supernatant (2 µL) was analyzed by HPLC using the conditions specified for each compound in the Experimental Section. […] When not soluble, an additional amount of PBS (x µL) was added, sonicated, and centrifuged. When visibly soluble, the solution (2 µL) was injected to HPLC and the peak area was used for the known concentration of the sample.

[24] = Sabouraud dextrose agar (pH 7.0), 28°C for 40 hours

Compound	MIC (FA21436)	MIC [1]	MIC [2]	MIC [3]	MIC (Candida albicans A9540 [4])	MIC (Candida albicans IAM4888)	MIC [5]	MIC [6]	MIC [7]	MIC (Mucor spinosus IFO5317)	MIC [8]	MIC [9]	MIC [10]	MIC [11]	also measured
N-(sodiosulfomethyl) pradimicin A [Ex. 8]	–	–	–	–	–	–	–	–	–	–	–	–	–	–	MIC, Asoergukkys flavus FA21436 (FA21436; [24]): 6.3 µg/mL; MIC, Aspergillus fumigatus IAM2034 [1]: 3.1 µg/mL; MIC, Aspergillus fumigatus IAM2530 [2]: 1.6 µg/mL; MIC, Blastomyces dermatidis D40 [3, 24]: 1.6 µg/mL; MIC, Candida albicans A9540 (Candida albicans A9540 [4]): 6.3 µg/mL; MIC, Candida albicans IAM4888 (Candida albicans IAM4888): 3.1 µg/mL; MIC, Cryptococcus neoformans D49 [5, 24]: 0.8 µg/mL; MIC, Cryptococcus neoformans IAM4514 [6]: 0.8 µg/mL; MIC, Fusarium moniliforme A2284 [7]: 3.1 µg/mL; MIC, Mucor spinosus IFO5317 (Mucor spinosus IFO5317): > 50.0 µg/mL; Partial Inhibition, Mucor spinosus IFO5317 (Mucor spinosus IFO5317; value in parentheses = Partial Inhibition): 6.3 µg/mL; MIC, Petriellidium boydii IFO8078 [8]: 6.3 µg/mL; MIC, Sprotricosis schenckii IFO8158 [9, 24]: 1.6 µg/mL; MIC, Trichophyton mentagrophytes #4329 [10]: 3.1 µg/mL; MIC, Trichophyton mentagrophytes D155 [11]: 6.3 µg/mL
COc1cc(O)c2c(c1)C(=O)c1c(cc3c(c1O)-c1c(cc(C)c(C(=O)N[C@H](C)C(=O)O)c1O)[C@H](O[C@@H]1O[C@H](C)[C@H](N(C)C(=O)CN(C)C)[C@H](O)[C@H]1O)[C@H]3O)C2=O [Ex. 15, N-(N,N-dimethylglycyl) pradimicin B]	–	–	–	–	–	–	–	–	–	–	–	–	–	–	MIC (Candida albicans A25578): 3.2 µg/mL (≈ 4.03 µM); MIC (Candida albicans A9540 [12]): 6.3 µg/mL (≈ 7.94 µM); MIC [13]: 6.3 µg/mL (≈ 7.94 µM); MIC [14]: 1.6 µg/mL (≈ 2.02 µM); MIC [15]: 3.2 µg/mL (≈ 4.03 µM); MIC [16]: 6.3 µg/mL (≈ 7.94 µM); MIC [17]: 3.2 µg/mL (≈ 4.03 µM); MIC [18]: 6.4 µg/mL (≈ 8.06 µM); MIC [19]: 12.5 µg/mL (≈ 15.7 µM); MIC [20]: 3.2 µg/mL (≈ 4.03 µM); MIC [21]: 12.5 µg/mL (≈ 15.7 µM); MIC [22]: 2.5 µg/mL (≈ 3.15 µM); solubility [23]: 2000 µg/mL (≈ 2520 µM)
COc1cc(O)c2c(c1)C(=O)c1c(cc3c(c1O)-c1c(cc(C)c(C(=O)N[C@H](C)C(=O)O)c1O)[C@H](O[C@@H]1O[C@H](C)[C@H](N(C)C(=O)CN(C)C)[C@H](O[C@@H]4OC[C@@H](O)[C@H](O)[C@H]4O)[C@H]1O)[C@H]3O)C2=O [Ex. 16, N-(N,N-Dimethylglycyl) pradimicin A]	> 50 µg/mL	12.5 µg/mL (≈ 13.5 µM)	12.5 µg/mL (≈ 13.5 µM)	50 µg/mL (≈ 54 µM)	6.3 µg/mL (≈ 6.8 µM)	6.3 µg/mL (≈ 6.8 µM)	3.4 µg/mL (≈ 3.67 µM)	3.1 µg/mL (≈ 3.35 µM)	> 50 µg/mL	> 50 µg/mL	> 50 µg/mL	6.3 µg/mL (≈ 6.8 µM)	6.3 µg/mL (≈ 6.8 µM)	6.3 µg/mL (≈ 6.8 µM)	–
COc1cc(O)c2c(c1)C(=O)c1c(cc3c(c1O)-c1c(cc(C)c(C(=O)N[C@H](C)C(=O)O)c1O)[C@H](O[C@@H]1O[C@H](C)[C@H](N(C)C/C=C/C(=O)O)[C@H](O[C@@H]4OC[C@@H](O)[C@H](O)[C@H]4O)[C@H]1O)[C@H]3O)C2=O [Ex. 13, N-(trans-3-carboxy-2-propenyl) pradimicin A]	100 µg/mL (≈ 108 µM)	100 µg/mL (≈ 108 µM)	100 µg/mL (≈ 108 µM)	> 100 µg/mL	100 µg/mL (≈ 108 µM)	50 µg/mL (≈ 54.1 µM)	50 µg/mL (≈ 54.1 µM)	25 µg/mL (≈ 27 µM)	> 100 µg/mL	> 100 µg/mL	> 100 µg/mL	100 µg/mL (≈ 108 µM)	> 100 µg/mL	> 100 µg/mL	–
